Results from US5521155A, “Amides of teicoplanin compounds” (Gruppo Lepetit S.p.A, priority 1985, dated 1996).
Values after ≈ are worked out from the molar mass of the structure shown.

Legend:
[1] = system: S. epidermidis ATCC 12228; experiment: In vitro antibacterial activity, standard agar-dilution test (MIC); assay type: cell-based; conditions: inoculum about 10^4 CFU/ml, 18-24 h at 37° C.
In short: (§1)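 Agar-dilution MIC with a final inoculum of about 10^4 CFU/ml, prepared from broth cultures.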

S. aureus ATCC 6538 = experiment: as above; assay type: cell-based; conditions: inoculum about 10^4 CFU/ml, 18-24 h at 37° C.
In short: as §1

S. pyogenes C 203 = experiment: as above; assay type: cell-based; conditions: inoculum about 10^4 CFU/ml, 18-24 h at 37° C.
In short: (§2)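 Growth media: Iso-Sensitest broth (staphylococci); Todd broth (streptococci). Final inoculum approx. 10^4 CFU/ml.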

S. faecalis ATCC 7080 = experiment: as above; assay type: cell-based; conditions: inoculum about 10^4 CFU/ml, 18-24 h at 37° C.
In short: as §2

[2] = system: Proteus vulgaris X 19H ATCC 881; experiment: as above; assay type: cell-based; conditions: inoculum about 10^4 CFU/ml, 18-24 h at 37° C.
In short: as §1

E. coli SKF 12140 = experiment: as above; assay type: cell-based; conditions: inoculum about 10^4 CFU/ml, 18-24 h at 37° C.
In short: as §1

S. aureus Tour = experiment: as above; assay type: cell-based; conditions: inoculum about 10^4 CFU/ml, 18-24 h at 37° C.
In short: as §1

[3] = system: Pseudomonas aeruginosa ATCC 10145; experiment: as above; assay type: cell-based; conditions: inoculum about 10^4 CFU/ml, 18-24 h at 37° C.
In short: as §1

S. pneumoniae UC 41 = experiment: as above; assay type: cell-based; conditions: inoculum about 10^4 CFU/ml, 18-24 h at 37° C.
In short: as §1

[4] = Isoelectric point (pI) by isoelectrofocusing with bioautography detection; assay type: physicochemical; conditions: IEF technique, polyacrylamide gel
In short: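 Polyacrylamide gel IEF (8% T, 4% C, 2% ampholytes) at 4 °C, with samples of 0.2–2.5 μg antibiotic focused at 10 W constant power for 3–3.5 h. pI was interpolated from a plot of gel-section pH (eluted in 10 mM KCl) against distance from the anode. Spots were located by bioautography on agar seeded with Bacillus subtilis ATCC 6633, incubated overnight at 37 °C.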

S. pyogenes L 49 = experiment: In vivo test in mice experimentally infected with S. pyogenes L 49 (ED50); conditions: mice infected with S. pyogenes L 49; for ED50, route of administration os.: oral
Acid-base titration (pK) = assay type: physicochemical; conditions: acid-base titration in METHYLCELLOSOLVE/H2O 4:1 (v/v), 0.01N KOH; salt form per Table IV
Method: The following table (Table IV) reports the acid-base titration data of some representative compounds of the invention. The assays were carried out in METHYLCELLOSOLVE/H2 O, 4:1(v/v). A sample is dissolved in METHYLCELLOSOLVE/H2 O, 4:1(v/v) (10 umole in about 20 ml) and then 0.01N HCl (2 ml) is added and the mixture is titrated with 0.01N KOH in the same solvent mixture.

| MIC S. epidermidis ATCC 12228 [1] [µg/mL] | MIC S. aureus ATCC 6538 (S. aureus ATCC 6538) [µg/mL] | MIC S. pyogenes C 203 (S. pyogenes C 203) [µg/mL] | MIC S. faecalis ATCC 7080 (S. faecalis ATCC 7080) [µg/mL] | MIC Proteus vulgaris X 19H ATCC 881 [2] [µg/mL] | MIC E. coli SKF 12140 (E. coli SKF 12140) [µg/mL] | MIC S. aureus Tour (S. aureus Tour) [µg/mL] | MIC Pseudomonas aeruginosa ATCC 10145 [3] [µg/mL] | MIC S. pneumoniae UC 41 (S. pneumoniae UC 41) [µg/mL] | Isoelectric point (pI) [4] | pK1 (Acid-base titration (pK)) | pK2 (Acid-base titration (pK)) | Compound | ED50, route of administration os. (S. pyogenes L 49) [mg/kg] | ED50, route of administration s.c (S. pyogenes L 49) [mg/kg] |
| --- | --- | --- | --- | --- | --- | --- | --- | --- | --- | --- | --- | --- | --- | --- |
| 0.016 (≈ 0.0122 µM) | 0.06 (≈ 0.0458 µM) | 0.12 (≈ 0.0915 µM) | 0.12 (≈ 0.0915 µM) | 128 (≈ 97.6 µM) | 16 (≈ 12.2 µM) | 0.12 (≈ 0.0915 µM) | 64 (≈ 48.8 µM) | 0.12 (≈ 0.0915 µM) | 7.9 | 5.01 | 6.8 | NC1C(=O)NC2Cc3ccc(c(Cl)c3)Oc3cc4cc(c3O)Oc3ccc(cc3Cl)C(O)C3NC(=O)C(NC(=O)C4NC(=O)C(NC2=O)c2cc(O)cc(c2)Oc2cc1ccc2O)c1ccc(O)c(c1)-c1c(O)cc(O)cc1C(C(=O)NCCN1CCOCC1)NC3=O (centres unmarked) [Compound 21] | > 300 | 2.2 |
| 0.032 (≈ 0.025 µM) | 0.06 (≈ 0.0468 µM) | 0.12 (≈ 0.0937 µM) | 0.12 (≈ 0.0937 µM) | 64 (≈ 50 µM) | 16 (≈ 12.5 µM) | 0.12 (≈ 0.0937 µM) | 32 (≈ 25 µM) | 0.12 (≈ 0.0937 µM) | 8.0 | 5.6 | 6.8 | CN1CCN(C(=O)C2NC(=O)C3NC(=O)C(NC(=O)C4NC(=O)C5NC(=O)C(Cc6ccc(c(Cl)c6)Oc6cc4cc(c6O)Oc4ccc(cc4Cl)C3O)NC(=O)C(N)c3ccc(O)c(c3)Oc3cc(O)cc5c3)c3ccc(O)c(c3)-c3c(O)cc(O)cc32)CC1 (centres unmarked) [Compound 23] | > 300 | 0.95 |
| 0.016 (≈ 0.0126 µM) | 0.12 (≈ 0.0946 µM) | 0.12 (≈ 0.0946 µM) | 0.12 (≈ 0.0946 µM) | 64 (≈ 50.5 µM) | 16 (≈ 12.6 µM) | 0.12 (≈ 0.0946 µM) | 64 (≈ 50.5 µM) | 0.12 (≈ 0.0946 µM) | 7.8 | 6.6 |  | NC1C(=O)NC2Cc3ccc(c(Cl)c3)Oc3cc4cc(c3O)Oc3ccc(cc3Cl)C(O)C3NC(=O)C(NC(=O)C4NC(=O)C(NC2=O)c2cc(O)cc(c2)Oc2cc1ccc2O)c1ccc(O)c(c1)-c1c(O)cc(O)cc1C(C(=O)N1CCOCC1)NC3=O (centres unmarked) [Compound 25] | > 300 | 1.02 |
